pIC50: −log10 of the molar value. Where two headings read alike, the source gives them in different places.
Assays:
[1] = biological target: human HDAC3/SMRT heterodimer (Homo sapiens (Human), UniProt O15379)
[2] = biological target: human HDAC1 (Homo sapiens (Human), UniProt Q13547)
[3] = biological target: human HDAC8 (Homo sapiens (Human), UniProt Q9BY41); experiment: HDAC8 inhibition assay (modified FLUOR DE LYS, 384-well); assay type: biochemical; conditions: […] enzyme, 200 μM substrate BML-KI178, 3 h pre-incubation; read-out: HDAC8 IC50
Description: The histone deacetylase activities of HDAC1, HDAC2, HDAC3, HDAC6, and HDAC8 were measured in modified FLUOR DE LYS assays in 384-well format. In this assay, HDAC enzymes are initially incubated with an F-acetyl (or -trifluoroacetyl)-L-lysine-containing substrate with a C-terminal amide having aminomethylcoumarin as the amine component. HDACs cleave the F-acetyl group, rendering the resulting product susceptible to AMC cleavage by trypsin. The released AMC is then detected by its fluorescence. […] All steps were performed at room temperature (23° C.). The assay was performed by pre-incubating serial dilutions of test compounds with the target HDAC prior to initiation with substrate. […] Final conditions used for each assay were: 1. […] The reactions were stopped and developed by addition of 30 ul of HDAC developer solution containing a saturating level of HDAC inhibitor as follows: 1. […] For data analysis, background subtracted product (fluorescence) vs. time data for each inhibitor concentration was fitted using a 4-parameter fit.

[4] = biological target: HDAC6 (Homo sapiens (Human), UniProt Q9UBN7)
[5] = system: KARN cells (Jurkat 2C4); experiment: cells; conditions: Homo sapiens
Description: KARN Assay Cell Maintenance
KARN cells (Jurkat 2C4) were licensed from the laboratory of Dr. John Karn, Case Western Reserve University, School of Medicine. […] An atmosphere of 5% CO2 and 90% humidity was used for all culture work.
These flasks were returned to the incubator.
The cells were gently resuspended in assay media (30 ml) and pelleted again. […] The cells were counted using the ViCell (Beckman Coulter) and diluted as necessary. […] The plates were covered and returned to the incubator prior to compound addition.
The reference compounds, DMSO and SAHA were then added to the compound plate. […] The final high concentration for SAHA and the test compounds in the assays was 40 μM. The final DMSO concentration in all wells was 0.4%. The minimal induction reference compound used was DMSO and the maximal induction reference compound used was SAHA (2 μM final concentration in the assay).
Day 3: The luciferase detection reagent was prepared by transferring the contents of one bottle of Steady-Glo buffer to one bottle of Steady-Glo aubstrate (Steady-Glo Luciferase Assay System, Promega, catalog number E2520), followed by gently mixing until the substrate was thoroughly dissolved and the solution was equilibrated to room temperature. […] The Steady-Glo Reagent was added to the plates (30 μl/well), which were then covered with a black lid and incubated for 10 minutes at room temperature. The plates were then read for luminescence on an Envision (Perkin Elmer) using the ultrasensitive mode (US LUM), 0.1 counts per second and 384-well aperture. Luminescence counts in the DMSO reference wells were considered as 0% induction, while those in the 2 μM SAHA reference wells were considered as 100% induction. Dose response curves were plotted as test compound concentration (X-axis) vs. percent activation (Y-axis) using a 4-parameter fit based on the Levenberg-Marquardt algorithm.

[6] = biological target: human HDAC2 (Homo sapiens (Human), UniProt Q92769); experiment: HDAC2 inhibition assay (modified FLUOR DE LYS, 384-well); assay type: biochemical; conditions: […] enzyme, 40 μM substrate BML-KI104, 3 h pre-incubation; read-out: HDAC2 IC50
[7] = read-out: Karn EC50 nM 0.1% NHS, 0.1% normal human serum, luciferase induction, 2 μM SAHA = 100%
[8] = read-out: Karn EC50 nM 5% NHS, 5% normal human serum, luciferase induction, 2 μM SAHA = 100%

Chain of HDAC6 (Q9UBN7 whole entry): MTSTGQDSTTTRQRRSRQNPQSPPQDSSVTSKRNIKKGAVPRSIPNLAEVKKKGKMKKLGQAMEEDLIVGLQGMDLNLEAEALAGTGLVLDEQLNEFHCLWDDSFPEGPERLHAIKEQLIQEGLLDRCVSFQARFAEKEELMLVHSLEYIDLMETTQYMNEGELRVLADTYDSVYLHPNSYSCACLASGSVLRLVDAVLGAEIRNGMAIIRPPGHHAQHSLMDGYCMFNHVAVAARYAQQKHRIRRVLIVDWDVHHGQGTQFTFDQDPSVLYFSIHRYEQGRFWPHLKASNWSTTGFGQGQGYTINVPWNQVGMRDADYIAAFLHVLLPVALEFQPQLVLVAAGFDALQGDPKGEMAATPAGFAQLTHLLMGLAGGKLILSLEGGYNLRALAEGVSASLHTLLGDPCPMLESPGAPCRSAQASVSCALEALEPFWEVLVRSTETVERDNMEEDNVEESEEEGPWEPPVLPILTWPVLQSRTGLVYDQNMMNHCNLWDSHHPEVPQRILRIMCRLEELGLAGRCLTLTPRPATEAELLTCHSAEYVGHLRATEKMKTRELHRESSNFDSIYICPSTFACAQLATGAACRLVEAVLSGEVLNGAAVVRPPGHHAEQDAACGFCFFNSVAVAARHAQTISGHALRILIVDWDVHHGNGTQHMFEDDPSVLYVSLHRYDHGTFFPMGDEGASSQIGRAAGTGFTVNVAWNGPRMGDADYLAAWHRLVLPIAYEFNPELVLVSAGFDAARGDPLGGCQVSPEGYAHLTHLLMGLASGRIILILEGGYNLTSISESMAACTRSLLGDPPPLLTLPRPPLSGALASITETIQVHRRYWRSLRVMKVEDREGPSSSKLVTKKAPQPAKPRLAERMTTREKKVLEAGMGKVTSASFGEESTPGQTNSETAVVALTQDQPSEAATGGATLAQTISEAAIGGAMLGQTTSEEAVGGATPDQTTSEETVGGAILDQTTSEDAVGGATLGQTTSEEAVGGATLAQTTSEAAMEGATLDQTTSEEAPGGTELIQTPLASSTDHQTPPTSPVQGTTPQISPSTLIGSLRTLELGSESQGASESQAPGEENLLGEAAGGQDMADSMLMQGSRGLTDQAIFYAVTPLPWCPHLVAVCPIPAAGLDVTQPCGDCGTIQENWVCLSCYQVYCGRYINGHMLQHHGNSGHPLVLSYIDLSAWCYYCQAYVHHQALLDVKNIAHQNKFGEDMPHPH
Chain of human HDAC1 (Q13547 whole entry): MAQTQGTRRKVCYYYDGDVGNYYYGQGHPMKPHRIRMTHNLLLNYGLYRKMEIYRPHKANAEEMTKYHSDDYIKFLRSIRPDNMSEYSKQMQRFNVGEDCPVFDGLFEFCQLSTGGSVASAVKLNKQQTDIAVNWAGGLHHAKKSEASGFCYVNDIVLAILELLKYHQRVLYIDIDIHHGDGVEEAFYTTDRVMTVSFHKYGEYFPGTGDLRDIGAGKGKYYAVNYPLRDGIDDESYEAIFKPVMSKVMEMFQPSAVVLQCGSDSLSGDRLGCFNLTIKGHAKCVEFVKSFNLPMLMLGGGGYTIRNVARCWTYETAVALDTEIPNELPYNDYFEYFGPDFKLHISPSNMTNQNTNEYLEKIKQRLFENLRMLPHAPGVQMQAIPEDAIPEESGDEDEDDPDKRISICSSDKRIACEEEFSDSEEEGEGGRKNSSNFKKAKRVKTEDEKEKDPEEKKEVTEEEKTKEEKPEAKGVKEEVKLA
Chain of human HDAC2 (Q92769 whole entry): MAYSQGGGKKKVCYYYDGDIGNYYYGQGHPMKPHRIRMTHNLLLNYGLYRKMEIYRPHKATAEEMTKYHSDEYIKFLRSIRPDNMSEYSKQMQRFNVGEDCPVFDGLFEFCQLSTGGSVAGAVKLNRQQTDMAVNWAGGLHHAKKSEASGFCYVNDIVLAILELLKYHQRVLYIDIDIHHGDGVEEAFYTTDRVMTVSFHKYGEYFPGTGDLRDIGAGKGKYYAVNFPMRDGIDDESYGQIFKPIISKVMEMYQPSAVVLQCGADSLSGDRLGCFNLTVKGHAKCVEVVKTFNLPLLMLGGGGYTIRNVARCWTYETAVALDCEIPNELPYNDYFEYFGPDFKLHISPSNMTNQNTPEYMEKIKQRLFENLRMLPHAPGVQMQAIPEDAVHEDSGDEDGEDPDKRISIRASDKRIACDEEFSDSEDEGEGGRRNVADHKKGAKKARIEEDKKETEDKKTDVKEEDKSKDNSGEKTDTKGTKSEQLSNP
Chain of human HDAC8 (Q9BY41 whole entry): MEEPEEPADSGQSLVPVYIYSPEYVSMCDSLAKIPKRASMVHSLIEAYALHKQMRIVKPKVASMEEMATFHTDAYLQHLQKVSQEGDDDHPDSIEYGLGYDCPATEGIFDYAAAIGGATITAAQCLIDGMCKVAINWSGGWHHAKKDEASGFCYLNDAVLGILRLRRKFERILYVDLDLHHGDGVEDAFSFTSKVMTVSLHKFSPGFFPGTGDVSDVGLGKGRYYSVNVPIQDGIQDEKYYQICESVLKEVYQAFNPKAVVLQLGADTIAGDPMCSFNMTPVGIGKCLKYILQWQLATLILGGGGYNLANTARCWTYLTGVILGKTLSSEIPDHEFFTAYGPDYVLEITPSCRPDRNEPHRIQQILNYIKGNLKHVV
Chain of human HDAC3/SMRT heterodimer (O15379 whole entry): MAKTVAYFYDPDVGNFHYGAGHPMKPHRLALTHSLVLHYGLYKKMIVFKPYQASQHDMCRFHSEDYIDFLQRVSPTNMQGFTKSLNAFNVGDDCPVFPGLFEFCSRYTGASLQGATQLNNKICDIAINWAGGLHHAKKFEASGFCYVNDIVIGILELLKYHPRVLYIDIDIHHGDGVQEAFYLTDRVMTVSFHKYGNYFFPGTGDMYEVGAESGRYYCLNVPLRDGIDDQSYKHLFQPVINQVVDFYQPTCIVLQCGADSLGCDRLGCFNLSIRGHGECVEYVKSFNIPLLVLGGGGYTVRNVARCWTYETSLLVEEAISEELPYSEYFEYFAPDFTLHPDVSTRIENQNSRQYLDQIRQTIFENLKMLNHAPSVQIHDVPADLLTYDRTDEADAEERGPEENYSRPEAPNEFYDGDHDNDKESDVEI
Chain of human HDAC3/SMRT heterodimer (Q9Y618 1-899 partner): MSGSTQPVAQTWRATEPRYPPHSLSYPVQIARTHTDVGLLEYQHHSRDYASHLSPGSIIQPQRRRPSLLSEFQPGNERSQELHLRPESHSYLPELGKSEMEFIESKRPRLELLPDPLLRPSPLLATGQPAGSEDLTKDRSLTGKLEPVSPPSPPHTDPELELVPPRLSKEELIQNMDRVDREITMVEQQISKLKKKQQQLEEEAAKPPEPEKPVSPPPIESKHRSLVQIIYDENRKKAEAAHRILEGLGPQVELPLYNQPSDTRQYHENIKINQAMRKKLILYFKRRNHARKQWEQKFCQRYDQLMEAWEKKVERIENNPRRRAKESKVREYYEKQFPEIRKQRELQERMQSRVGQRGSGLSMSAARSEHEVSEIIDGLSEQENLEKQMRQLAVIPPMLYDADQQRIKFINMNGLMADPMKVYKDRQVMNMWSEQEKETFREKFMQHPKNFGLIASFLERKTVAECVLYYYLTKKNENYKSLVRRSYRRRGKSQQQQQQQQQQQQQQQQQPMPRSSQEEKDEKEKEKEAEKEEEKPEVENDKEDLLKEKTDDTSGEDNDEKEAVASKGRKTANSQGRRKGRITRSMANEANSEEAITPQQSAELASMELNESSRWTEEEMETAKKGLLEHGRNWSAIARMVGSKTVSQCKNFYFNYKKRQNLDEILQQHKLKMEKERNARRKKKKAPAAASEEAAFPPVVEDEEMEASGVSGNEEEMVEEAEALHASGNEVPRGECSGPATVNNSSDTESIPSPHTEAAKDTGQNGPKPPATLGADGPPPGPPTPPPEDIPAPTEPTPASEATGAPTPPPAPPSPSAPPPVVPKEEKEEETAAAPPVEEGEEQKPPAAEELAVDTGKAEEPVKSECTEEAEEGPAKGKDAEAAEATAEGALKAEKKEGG

With `COc1nc2ccccc2cc1-c1cnc([C@H](CCCCCC(=O)c2ncco2)NC(=O)C2COCCO2)[nH]1` (stereo partly drawn) [Example 152, N-[(1S)-1-[5-(2-methoxyquinolin-3-yl)-1H-imidazol-2-yl]-7-(1,3-oxazol-2-yl)-7-oxoheptyl]-1,4-dioxane-2-carboxamide] the pIC50 [1] was 8.80, the pIC50 [2] was 9.17 and the pIC50 [3] was 7.11. It also gave a pIC50 [4] of 4.92, an EC50 [5, 7] of 49 nM and an EC50 [5, 8] of 350 nM. The pIC50 [6] was 8.24.
`COc1cc2nc(C)ccc2cc1-c1cnc([C@H](CCCCCC(=O)c2ncco2)NC(=O)CN2CCOCC2=O)[nH]1` [Example 158, N-[(1S)-1-[5-(7-methoxy-2-methylquinolin-6-yl)-1H-imidazol-2-yl]-7-(1,3-oxazol-2-yl)-7-oxoheptyl]-2-(3-oxomorpholin-4-yl)acetamide] gave a pIC50 [1] of 8.82, a pIC50 [2] of 8.96 and a pIC50 [3] of 7.32. For the same compound, the pIC50 [4] was 6.23, the EC50 [5, 7] was 210 nM and the EC50 [5, 8] was 210 nM. For the same compound, the pIC50 [6] was 8.25.
With `COc1cc2nc(C)ccc2cc1-c1cnc([C@H](CCCCCC(=O)c2ncco2)NC(=O)c2cc3ncccn3n2)[nH]1` [Example 161, N-[(1S)-1-[5-(7-methoxy-2-methylquinolin-6-yl)-1H-imidazol-2-yl]-7-(1,3-oxazol-2-yl)-7-oxoheptyl]pyrazolo[1,5-a]pyrimidine-2-carboxamide] the pIC50 [1] was 9.24, the pIC50 [2] was 8.77 and the pIC50 [3] was 7.36. The pIC50 [4] was under 6.05, the EC50 [5, 7] was 75 nM and the EC50 [5, 8] was 210 nM. It also gave a pIC50 [6] of 7.96.
`COc1cc2nc(C)ccc2cc1-c1cnc([C@H](CCCCCC(=O)c2ncco2)NC(=O)Cn2cccc2)[nH]1` [Example 162, N-[(1S)-1-[5-(7-methoxy-2-methylquinolin-6-yl)-1H-imidazol-2-yl]-7-(1,3-oxazol-2-yl)-7-oxoheptyl]-2-(1H-pyrrol-1-yl)acetamide] was tested, and the pIC50 [1] was 8.82, the pIC50 [2] was 8.38 and the pIC50 [3] was 6.52. It also gave a pIC50 [4] of under 6.05, an EC50 [5, 7] of 650 nM and an EC50 [5, 8] of 1200 nM. The pIC50 [6] was 7.62.
`COc1cc2nc(C)ccc2cc1-c1cnc([C@H](CCCCCC(=O)c2ncco2)NC(=O)c2cc3n(n2)CCCO3)[nH]1` [Example 163, N-[(1S)-1-[5-(7-methoxy-2-methylquinolin-6-yl)-1H-imidazol-2-yl]-7-(1,3-oxazol-2-yl)-7-oxoheptyl]-6,7-dihydro-5H-pyrazolo[5,1-b][1,3]oxazine-2-carboxamide] was tested, and the pIC50 [1] was 9.28, the pIC50 [2] was 8.80 and the pIC50 [3] was 7.42. For the same compound, the pIC50 [4] was under 6.05, the EC50 [5, 7] was 84 nM and the EC50 [5, 8] was 210 nM. For the same compound, the pIC50 [6] was 8.08.
For `COc1cc2nc(C)ccc2cc1-c1cnc([C@H](CCCCCC(=O)c2ncco2)NC(=O)c2cc3n(n2)CCS(=O)(=O)C3)[nH]1` [Example 165, N-[(1S)-1-[5-(7-methoxy-2-methylquinolin-6-yl)-1H-imidazol-2-yl]-7-(1,3-oxazol-2-yl)-7-oxoheptyl]-6,7-dihydro-4H-pyrazolo[5,1-c][1,4]thiazine-2-carboxamide 5,5-dioxide], the pIC50 [1] was 9.34, the pIC50 [2] was 8.64 and the pIC50 [3] was 7.39. It also gave a pIC50 [4] of under 6.05, an EC50 [5, 7] of 370 nM and an EC50 [5, 8] of 760 nM. It also gave a pIC50 [6] of 8.14.
In the case of `COc1cc2nc(C)ccc2cc1-c1cnc([C@H](CCCCCC(=O)c2ncco2)NC(=O)Cn2ccc(C)n2)[nH]1` [Example 166, N-[(1S)-1-[5-(7-methoxy-2-methylquinolin-6-yl)-1H-imidazol-2-yl]-7-(1,3-oxazol-2-yl)-7-oxoheptyl]-2-(3-methyl-1H-pyrazol-1-yl)acetamide], the pIC50 [1] was 9.25, the pIC50 [2] was 8.77 and the pIC50 [3] was 7.12. It also gave a pIC50 [4] of 6.18, an EC50 [5, 7] of 77 nM and an EC50 [5, 8] of 200 nM. It also gave a pIC50 [6] of 8.21.
Work on `COc1cc2nc(C)ccc2cc1-c1cnc([C@H](CCCCCC(=O)c2ncco2)NC(=O)c2cc3ccccn3n2)[nH]1` [Example 167, N-[(1S)-1-[5-(7-methoxy-2-methylquinolin-6-yl)-1H-imidazol-2-yl]-7-(1,3-oxazol-2-yl)-7-oxoheptyl]pyrazolo[1,5-a]pyridine-2-carboxamide] yielded a pIC50 [1] of 9.23, a pIC50 [2] of 8.66 and a pIC50 [3] of 7.20. It also gave a pIC50 [4] of under 6.05, an EC50 [5, 7] of 83 nM and an EC50 [5, 8] of 400 nM. The pIC50 [6] was 7.89.
With `COc1cc2nc(C)ccc2cc1-c1cnc([C@H](CCCCCC(=O)c2ncco2)NC(=O)C2CCCCO2)[nH]1` (stereo partly drawn) [Example 168, N-[(1S)-1-[5-(7-methoxy-2-methylquinolin-6-yl)-1H-imidazol-2-yl]-7-(1,3-oxazol-2-yl)-7-oxoheptyl]tetrahydro-2H-pyran-2-carboxamide] the pIC50 [1] was 8.92, the pIC50 [2] was 8.52 and the pIC50 [3] was 6.92. For the same compound, the pIC50 [4] was under 6.05, the EC50 [5, 7] was 100 nM and the EC50 [5, 8] was 200 nM. It also gave a pIC50 [6] of 7.92.
`COc1cc2nc(C)ccc2cc1-c1cnc([C@H](CCCCCC(=O)c2ncco2)NC(=O)C2CCCO2)[nH]1` (stereo partly drawn) [Example 169, N-[(1S)-1-[5-(7-methoxy-2-methylquinolin-6-yl)-1H-imidazol-2-yl]-7-(1,3-oxazol-2-yl)-7-oxoheptyl]tetrahydrofuran-2-carboxamide] was tested, and the pIC50 [1] was 8.92, the pIC50 [2] was 8.47 and the pIC50 [3] was 6.74. For the same compound, the pIC50 [4] was under 6.05, the EC50 [5, 7] was 99 nM and the EC50 [5, 8] was 270 nM. The pIC50 [6] was 7.82.
With `COc1cc2nc(C)ccc2cc1-c1cnc([C@H](CCCCCC(=O)c2ncco2)NC(=O)C2(C)CCCCO2)[nH]1` (stereo partly drawn) [Example 170, N-[(1S)-1-[5-(7-methoxy-2-methylquinolin-6-yl)-1H-imidazol-2-yl]-7-(1,3-oxazol-2-yl)-7-oxoheptyl]-2-methyltetrahydro-2H-pyran-2-carboxamide] the pIC50 [1] was 8.80, the pIC50 [2] was 8.39 and the pIC50 [3] was 6.66. The pIC50 [4] was under 6.05, the EC50 [5, 7] was 160 nM and the EC50 [5, 8] was 260 nM. For the same compound, the pIC50 [6] was 7.77.
`COc1cc2nc(C)ccc2cc1-c1cnc([C@H](CCCCCC(=O)c2ncco2)NC(=O)C2COc3ccccc3O2)[nH]1` (stereo partly drawn) [Example 171, N-[(1S)-1-[5-(7-methoxy-2-methylquinolin-6-yl)-1H-imidazol-2-yl]-7-(1,3-oxazol-2-yl)-7-oxoheptyl]-2,3-dihydro-1,4-benzodioxine-2-carboxamide] gave a pIC50 [1] of 8.40, a pIC50 [2] of 7.96 and a pIC50 [3] of 6.47. The pIC50 [4] was under 6.05, the EC50 [5, 7] was 180 nM and the EC50 [5, 8] was 470 nM. It also gave a pIC50 [6] of 7.25.
`COc1cc2nc(C)ccc2cc1-c1cnc([C@H](CCCCCC(=O)c2ncco2)NC(=O)C2COC(c3ccccc3)CO2)[nH]1` (stereo partly drawn) [Example 172, N-[(1S)-1-[5-(7-methoxy-2-methylquinolin-6-yl)-1H-imidazol-2-yl]-7-(1,3-oxazol-2-yl)-7-oxoheptyl]-5-phenyl-1,4-dioxane-2-carboxamide] showed a pIC50 [1] of 8.19, a pIC50 [2] of 7.70 and a pIC50 [3] of 6.31. The pIC50 [4] was under 6.05, the EC50 [5, 7] was 340 nM and the EC50 [5, 8] was 990 nM. The pIC50 [6] was 7.00.
Work on `COc1cc2nc(C)ccc2cc1-c1cnc([C@H](CCCCCC(=O)c2ncco2)NC(=O)C2COCCO2)[nH]1` (stereo partly drawn) [Example 173, N-[(1S)-1-[5-(7-methoxy-2-methylquinolin-6-yl)-1H-imidazol-2-yl]-7-(1,3-oxazol-2-yl)-7-oxoheptyl]-1,4-dioxane-2-carboxamide] yielded a pIC50 [1] of 9.37, a pIC50 [2] of 8.96 and a pIC50 [3] of 7.08. For the same compound, the pIC50 [4] was under 6.05, the EC50 [5, 7] was 42 nM and the EC50 [5, 8] was 74 nM. It also gave a pIC50 [6] of 8.49.
